Source: patent publication US20240374738A1, “BIFUNCTIONAL COMPOUND CAPABLE OF DEGRADING RECEPTOR TYROSINE KINASE AND APPLICATION THEREOF” (TAIBIDI PHARMACEUTICAL TECHNOLOGY (SHIJIAZHUANG) CO., LTD., priority 2023, published 2024)

Experiments:
Type in all cases: cell-based
DDR1 = DDR1 (Homo sapiens, UniProt Q08345); assay: Degradation of DDR1 in tumor cell MKN45 (Western blot); design: The degradation activity of the compounds against DDR1 in the MKN45 cell line; endogenous in cells; host or cells: MKN45; details: MKN-45, maximum degradation percentage, MKN45 cells, 24 hours
Sequence of DDR1 (Q08345 19-913): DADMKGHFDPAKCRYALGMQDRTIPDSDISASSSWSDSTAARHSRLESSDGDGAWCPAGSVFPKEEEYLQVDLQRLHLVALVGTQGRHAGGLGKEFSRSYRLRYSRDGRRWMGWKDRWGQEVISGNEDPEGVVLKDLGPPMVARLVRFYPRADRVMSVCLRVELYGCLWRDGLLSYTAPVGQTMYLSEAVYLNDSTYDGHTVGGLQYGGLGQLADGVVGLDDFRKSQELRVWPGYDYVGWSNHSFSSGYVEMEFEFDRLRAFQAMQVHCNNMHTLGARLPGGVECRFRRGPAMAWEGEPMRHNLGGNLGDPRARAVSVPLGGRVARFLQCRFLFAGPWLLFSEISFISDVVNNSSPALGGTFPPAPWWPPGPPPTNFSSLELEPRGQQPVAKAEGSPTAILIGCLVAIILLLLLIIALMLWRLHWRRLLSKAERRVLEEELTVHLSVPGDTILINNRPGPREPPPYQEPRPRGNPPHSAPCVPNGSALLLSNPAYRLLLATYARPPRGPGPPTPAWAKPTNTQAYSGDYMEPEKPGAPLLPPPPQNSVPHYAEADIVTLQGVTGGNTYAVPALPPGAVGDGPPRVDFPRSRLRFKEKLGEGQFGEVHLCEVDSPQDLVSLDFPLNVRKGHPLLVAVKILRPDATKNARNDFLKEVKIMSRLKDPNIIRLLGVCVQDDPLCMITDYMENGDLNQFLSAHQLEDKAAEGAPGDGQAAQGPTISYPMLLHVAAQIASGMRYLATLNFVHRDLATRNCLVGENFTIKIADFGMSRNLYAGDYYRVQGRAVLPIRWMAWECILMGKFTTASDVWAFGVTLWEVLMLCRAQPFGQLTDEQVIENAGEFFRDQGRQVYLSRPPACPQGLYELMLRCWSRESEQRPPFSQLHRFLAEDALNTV
Outline: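 MKN45 gastric cancer cells were treated with compound dilutions for 24 h at a final DMSO of 0.5%; the 2 mM–200 nM series is the added solution, not the final concentration. DDR1 in lysates was quantified by Western blot, normalized to GAPDH and expressed relative to blank control, giving DC50 and Dmax.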

SNU5 = assay: Growth inhibition of gastric cancer cells SNU5 (CCK-8); details: Homo sapiens, SNU-5, half inhibitory concentration, 72 hours
Outline: (§1)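 MKN45 or SNU5 cells in 96-well plates were treated with compound dilution series in triplicate for 72 h. Viability was read by CCK-8 (1 h, absorbance 450 nm), and inhibition was calculated against blank and medium-only controls. IC50 came from concentration-response curves.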

MKN45 = assay: Growth inhibition of gastric cancer cells MKN45 (CCK-8); details: Homo sapiens, MKN-45, half inhibitory concentration, 72 hours
Outline: as §1

Row | Dmax (DDR1) [%] | IC50 (SNU5) [nM] | IC50 (MKN45) [nM] | SMILES
1 | 75 to 85 | ≤ 100 | ≤ 100 | O=C1CCC(N2Cc3cc(NC(=O)CN4C[C@@H]5C[C@H]4CN5CC4CCN(c5cc6nccc(Oc7ccc(NC(=O)C8(C(=O)Nc9ccc(F)cc9)CC8)cc7)c6cc5F)CC4)ncc3C2=O)C(=O)N1 (stereo partly drawn) [TPD12102]
2 | 65 to 75 | 1000 to 3000 | 1000 to 3000 | COc1cc2c(Oc3ccc(NC(=O)C4(C(=O)Nc5ccc(F)cc5)CC4)cc3)ccnc2cc1N1CCC(CN2CC(N[C@H](C(=O)N3C[C@H](O)C[C@H]3C(=O)NCc3ccc(-c4scnc4C)cc3)C(C)(C)C)C2)CC1 [TPD5431]
3 | 65 to 75 | 100 to 500 | 100 to 500 | COc1cc2c(Oc3ccc(NC(=O)C4(C(=O)Nc5ccc(F)cc5)CC4)cc3)ccnc2cc1N1CCC(C(=O)N2CCC(C(=O)N[C@H](C(=O)N3C[C@H](O)C[C@H]3C(=O)NCc3ccc(-c4scnc4C)cc3)C(C)(C)C)CC2)CC1 [TPD5436]
4 | 65 to 75 | ≤ 100 | ≤ 100 | COc1cc2c(Oc3ccc(NC(=O)C4(C(=O)Nc5ccc(F)cc5)CC4)cc3)ccnc2cc1N1CCC(CN2C[C@@H]3C[C@H]2CN3CCC(=O)Nc2ccc3c(c2)CN(C2CCC(=O)NC2=O)C3=O)CC1 (stereo partly drawn) [TPD12218]
5 | 75 to 85 | 500 to 1000 | 1000 to 3000 | COc1cc2c(Oc3ccc(NC(=O)C4(C(=O)Nc5ccc(F)cc5)CC4)cc3)ccnc2cc1-c1cnn(C2CCN(C(=O)CCCCC(=O)N[C@H](C(=O)N3C[C@H](O)C[C@H]3C(=O)NCc3ccc(-c4scnc4C)cc3)C(C)(C)C)CC2)c1 [TPD5505]

More lines, now with the values behind:

Row | SMILES | Dmax (DDR1) [%] | IC50 (SNU5) [nM] | IC50 (MKN45) [nM]
6 | COc1cc2c(Oc3ccc(NC(=O)C4(C(=O)Nc5ccc(F)cc5)CC4)cc3)ccnc2cc1N1CCC(OCC(=O)N[C@H](C(=O)N2C[C@H](O)C[C@H]2C(=O)NCc2ccc(-c3scnc3C)cc2)C(C)(C)C)CC1 [TPD5411] | 75 to 85 | 100 to 500 | 100 to 500
7 | COc1cc2c(Oc3ccc(NC(=O)C4(C(=O)Nc5ccc(F)cc5)CC4)cc3)ccnc2cc1COCCN1CCC(CCNc2cccc3c2C(=O)N(C2CCC(=O)NC2=O)C3=O)CC1 (stereo not drawn) [TPD5313] | 65 to 75 | 100 to 500 | 100 to 500
8 | COc1cc2c(Oc3ccc(NC(=O)C4(C(=O)Nc5ccc(F)cc5)CC4)cc3)ccnc2cc1NC(=O)CCCN1CCC(CN2CCN(c3ccc(NC4CCC(=O)NC4=O)cc3)CC2)CC1 (stereo not drawn) [TPD5752m] | > 85 | 100 to 500 | 100 to 500
9 | COc1cc2c(Oc3ccc(NC(=O)C4(C(=O)Nc5ccc(F)cc5)CC4)cc3)ccnc2cc1N1CCC(OCCC(=O)N[C@H](C(=O)N2C[C@H](O)C[C@H]2C(=O)NCc2ccc(-c3scnc3C)cc2)C(C)(C)C)CC1 [TPD5412] | 65 to 75 | 100 to 500 | 100 to 500
10 | COc1cc2c(Oc3ccc(NC(=O)C4(C(=O)Nc5ccc(F)cc5)CC4)cc3)ccnc2cc1N1CCC(CN2CCC(C(=O)N[C@H](C(=O)N3C[C@H](O)C[C@H]3C(=O)NCc3ccc(-c4scnc4C)cc3)C(C)(C)C)CC2)CC1 [TPD5402b] | 65 to 75 | ≤ 100 | ≤ 100
11 | COc1cc2c(Oc3ccc(NC(=O)C4(C(=O)Nc5ccc(F)cc5)CC4)cc3)ccnc2c(F)c1N1CCC(CN2C3CC2CN(CCC(=O)Nc2cccc4c2CN(C2CCC(=O)NC2=O)C4=O)C3)CC1 (stereo not drawn) [TPD12140] | 65 to 75 | ≤ 100 | ≤ 100
12 | COc1cc2c(Oc3ccc(NC(=O)C4(C(=O)Nc5ccc(F)cc5)CC4)cc3)ccnc2cc1N1CCC(CN2CCN(CCNc3cc4c(cn3)C(=O)N(C3CCC(=O)NC3=O)C4)CC2)CC1 (stereo not drawn) [TPD12003] | 75 to 85 | ≤ 100 | ≤ 100
13 | COc1cc2c(Oc3ccc(NC(=O)C4(C(=O)Nc5ccc(F)cc5)CC4)cc3)ccnc2cc1N1CCC(N2CCC(C(=O)N[C@H](C(=O)N3C[C@H](O)C[C@H]3C(=O)NCc3ccc(-c4scnc4C)cc3)C(C)(C)C)CC2)CC1 [TPD5420] | 65 to 75 | 500 to 1000 | 1000 to 3000
